Common to all, as to test: NCI human tumor cell panel
The subject of one test is OVCAR-8. Particulars: OVCAR-8, read-out: Log10 LC50 (converted).
The test system of another test is MDA-MB-435. The note with it: for CC50: MDA-MB-435, read-out: Log10 LC50 (converted).
Another test concerns SK-MEL-5. Particulars: SK-MEL-5, read-out: Log10 LC50 (converted).
A further test has as its system SW-620. The format is cell-based. The note with it: SW-620, read-out: Log10 LC50 (converted). The text has this: (§1) Considering the diversity of tumors in terms of cell type, morphology, growth rate and other cellular characteristics, the U.S. National Cancer Institute (NCI) has developed a "disease-oriented" approach to antitumor activity screening (M.R. Boyd, in "Principle of Practice of Oncology" J.T. Devita, S. Hellman, S.A. Rosenberg (Eds.) Vol. 3, PPO Update, No. 10, 1989). This in vitro prescreening system is based on the measurement of antitumor cytotoxicity against human tumor cell line panels consisting of approximately 60 cell lines of major human tumors (including leukemia and slower growing tumor cells such as lung, colon, breast, skin, kidney, etc.). The most important advantage of the new in vitro screening panels is the opportunity to identify compounds that are selectively more cytotoxic to cells of slowly growing solid tumors than to rapidly growing leukemia cells.
(§2) The cytotoxic activity of the present selenophene compounds have been measured utilizing two different assays or screens. The first screen measures the cytotoxicity against a panel of sixty different human tumor cell lines. This assay provides data regarding the general cytotoxicity of an individual compound. In particular this type of assay is useful in identifying compounds which have enhanced cytotoxic activity against slow growing tumors as compared to faster growing tumor cells such as leukemia tumor cell lines. The identification of such compounds is critical since previously identified antitumor agents have low cytotoxic activity against slower growing tumors. […] The specificity of a cytotoxic compound for tumor cell lines relative to normal cells is an important characteristic of an effective antitumor agent.
(§3) Antitumor cytotoxicity data generated from the National Cancer Institute human tumor cell panels can also be expressed in a graphic pattern (mean graph) to display differential cell growth inhibition (K.D. Paull, R.H. Shoemaker, L. Hodes, A. Monks, D.A. Scudiero, L. Rubinstein, J. Plowman and M.R. Boyd, J. Nail. Cancer Inst., 81, 1088, 1989.) In the mean graph, the arithmetic mean of the logarithm of the GI50 (50% growth inhibition), TGI (total growth inhibition) or LC50 (50% lethal concentration) values is used as an anchor point. […] The length of a bar is indicative of differential cytotoxicity against a specific type of tumor cells or tumor panels.
(§4) The antitumor cytotoxicity of the selenophene compounds tested in those in vitro assays was measured by a microculture assay using either a 3-(4,5-dimethylthiazol-2-yl)-2,5-diphenyltetrazolium bromide (MTT) or sulforhodamine B (SRB) based assay. [M.R. Boyd in "Principles and Practices of Oncology," V.T. DeVita, Jr.]. The experiments were conducted at Purdue University in 96-well microtiter plates and the cytotoxic effects of the selenophene compounds on those cells were measured by cell count using a Coulter Z.F. counter (Hialeah, FL). The results are expressed as GI50, the concentration of drug at which cell numbers are reduced to 50% of control cell culture [T.C.K. Chan, C.J. Chang, N.M. Koonchanok and R.L. Geahlen, Biochem. Biophys. Res. Commun., 193, 1152, (1993); S. Hellman and S.A. Rosenberg (Eds.), Vol. 3, PPO Updates, Number 10, (1989).]
(§5) This in vitro microculture assay has an advantage over in vivo assays in that results are obtained within a week as opposed to several months. The MTT assay is based on the production of a dark blue formazan product by dehydrogenase in the mitochondria of live tumor cells after exposure to drug for 6 days [M.C. Alley, D.A. Scudiero, A. Monks, M.L. Hursey, M.J. Czerwinski, D.L. Fine, B.J. Abbott, J.G. Mayo, R.H. Shoemaker and M.R. Boyd, Cancer Res., 48, 589, 1988]. Thus, only live cells are stained and can be measured at 570 nm. […]

In the next test the test system is M14. The format is cell-based. The note with it: M14, read-out: Log10 LC50 (converted).
Description: as §1, §2, §3, §4, §5

The next test concerns MCF7. The format is cell-based. The note with it: MCF7, read-out: Log10 LC50 (converted).
Description: as §1, §2, §3, §4, §5

Another test deals with K-562. The class given is cell-based. The note with it: K562, read-out: Log10 LC50 (converted).
Description: as §1, §2, §3, §4, §5

For another test, the system named is A549/ATCC. The class given is cell-based. Particulars: A549, read-out: Log10 LC50 (converted).
Description: as §1, §2, §3, §4, §5

The test system of a further test is SR. The format is cell-based. The note with it: read-out: Log10 LC50 (converted).
Description: as §1, §2, §3, §4, §5

A further test has as its system HCT-15. The class given is cell-based. Particulars: HCT-15, read-out: Log10 LC50 (converted).
Description: as §1, §2, §3, §4, §5

The test system of another test is OVCAR-4. The format is cell-based. The note with it: OVCAR-4, read-out: Log10 LC50 (converted).
Description: as §1, §2, §3, §4, §5

A further test deals with MOLT-4. The class given is cell-based. The note with it: MOLT-4, read-out: Log10 LC50 (converted).
Description: as §1, §2, §3, §4, §5

Another test has as its system SF-539. The class given is cell-based. Particulars: SF-539, read-out: Log10 LC50 (converted).
Description: as §1, §2, §3, §4, §5

The test system of the next test is RPMI-8226. The format is cell-based. The note with it: RPMI-8226, read-out: Log10 LC50 (converted).
Description: as §1, §2, §3, §4, §5

The test system of another test is 786-0. The format is cell-based. Particulars: 786-0, read-out: Log10 LC50 (converted).
Description: as §1, §2, §3, §4, §5

The next test concerns OVCAR-5. The format is cell-based. The note with it: OVCAR-5, read-out: Log10 LC50 (converted).
Description: as §1, §2, §3, §4, §5

The subject of the next test is SK-MEL-2. The class given is cell-based. Particulars: SK-MEL-2, read-out: Log10 LC50 (converted).
Description: as §1, §2, §3, §4, §5

Another test relates to IGROV1. The class given is cell-based. Particulars: IGROV-1, read-out: Log10 LC50 (converted).
Description: as §1, §2, §3, §4, §5

Another test concerns MCF7/ADR-RES. The format is cell-based. The note with it: MCF7, read-out: Log10 LC50 (converted).
Description: as §1, §2, §3, §4, §5

In the next test the test system is LOX IMVI. The format is cell-based. The note with it: read-out: Log10 LC50 (converted).
Description: as §1, §2, §3, §4, §5

A further test relates to HCC-2998. The class given is cell-based. Particulars: HCC 2998, read-out: Log10 LC50 (converted).
Description: as §1, §2, §3, §4, §5

Structures are written as SMILES.

On to `OCc1ccc(-c2ccc(-c3ccc(CO)[se]3)s2)[se]1`, for which the CC50 in the test with OVCAR-8, in the test on MDA-MB-435, in the test with SK-MEL-5, in the test on SW-620, in the test on M14 and in the test on MCF7 was > 100 µM in each case. Further, the CC50 in the test with A549/ATCC, with SR, with HCT-15, in the test with OVCAR-4, with MOLT-4 and in the test on SF-539 was > 100 µM each time. Moreover, the CC50 in the test on RPMI-8226 was > 100 µM; in the test on 786-0, > 100 µM; in the test on OVCAR-5, 0.776 µM; in the test with SK-MEL-2, > 100 µM; with IGROV1, > 100 µM; with MCF7/ADR-RES, > 100 µM. Also, the CC50 in the test with LOX IMVI was > 100 µM; in the test with HCC-2998, 2.45 µM. The IC (TGI) in the test on MDA-MB-435 (MDA-MB-435, read-out: Log10 TGI) is > 100 µM. Moreover, the LC50 in the test with K-562 was > 100 µM.
On to `OCc1ccc(-c2ccc(-c3cccs3)[se]2)s1`, for which the CC50 in the test with OVCAR-8, in the test with MDA-MB-435, in the test on SK-MEL-5, in the test with SW-620, in the test on M14 and with MCF7 was > 100 µM each time. For the same compound, the CC50 in the test on A549/ATCC, in the test with SR, in the test with HCT-15, in the test with OVCAR-4, in the test on MOLT-4 and with SF-539 was > 100 µM each time. Further, the CC50 in the test with RPMI-8226 was > 100 µM; in the test with 786-0, > 100 µM; in the test with OVCAR-5, > 100 µM; in the test on SK-MEL-2, > 100 µM; in the test with IGROV1 it was 16.2 µM; in the test on MCF7/ADR-RES, > 100 µM. Moreover, the CC50 in the test on LOX IMVI is > 100 µM; in the test on HCC-2998 it was 9.77 µM. Besides, in the test with K-562, the LC50 is > 100 µM.
`O=Cc1ccc(-c2ccc(-c3ccc(C=O)[se]3)s2)[se]1`: the CC50 in the test on OVCAR-8, in the test on MDA-MB-435, with SK-MEL-5, in the test on SW-620, in the test on M14 and in the test on MCF7 was > 100 µM in each case. The CC50 with A549/ATCC, with SR, with HCT-15, in the test with OVCAR-4, in the test with MOLT-4 and in the test on SF-539 was > 100 µM throughout. Further, the CC50 in the test on RPMI-8226 is > 100 µM; in the test on 786-0 it was > 100 µM; in the test with OVCAR-5, 3.55 µM; with SK-MEL-2, > 100 µM; in the test on IGROV1 it was > 100 µM; in the test with MCF7/ADR-RES, > 100 µM. For the same compound, the CC50 with LOX IMVI and in the test with HCC-2998 was > 100 µM throughout. For the same compound, the LC50 with K-562 is > 100 µM.
In the case of `O=Cc1ccc(-c2ccc(-c3ccc(C=O)[se]3)[se]2)[se]1`, the CC50 with OVCAR-8, in the test with MDA-MB-435, in the test on SK-MEL-5, in the test on SW-620, in the test with M14 and in the test with MCF7 was > 100 µM each time. In addition, the CC50 in the test on A549/ATCC, in the test with SR, with HCT-15, in the test with OVCAR-4, with MOLT-4 and with SF-539 was > 100 µM each time. For the same compound, the CC50 in the test on RPMI-8226 was > 100 µM; in the test with 786-0, > 100 µM; in the test with OVCAR-5 it was > 100 µM; in the test with SK-MEL-2 it was > 100 µM; with IGROV1, 74.1 µM; in the test on MCF7/ADR-RES, > 100 µM. In addition, the CC50 in the test on LOX IMVI and in the test with HCC-2998 was > 100 µM in each case. The LC50 with K-562 is > 100 µM.
On to `O=Cc1ccc(-c2ccc(-c3cccs3)[se]2)s1`, for which the CC50 in the test on OVCAR-8, in the test on MDA-MB-435, in the test on SK-MEL-5, in the test on SW-620, in the test with M14 and with MCF7 was > 100 µM in each case. Also, the CC50 in the test with A549/ATCC, with SR, in the test with HCT-15, with OVCAR-4, with MOLT-4 and in the test with SF-539 was > 100 µM throughout. Moreover, the CC50 in the test on RPMI-8226, in the test on 786-0, in the test on OVCAR-5, with SK-MEL-2, in the test on IGROV1 and in the test with MCF7/ADR-RES was > 100 µM in each case. Moreover, the CC50 is > 100 µM with LOX IMVI and 20.9 µM in the test with HCC-2998. In addition, in the test on K-562, the LC50 is > 100 µM.
With `O=Cc1ccc(-c2ccc(-c3ccc(C=O)s3)[se]2)s1`, the CC50 with OVCAR-8, with MDA-MB-435, in the test on SK-MEL-5, with SW-620, in the test on M14 and in the test on MCF7 was > 100 µM in each case. The CC50 in the test with A549/ATCC, in the test on SR, with HCT-15, in the test with OVCAR-4, in the test with MOLT-4 and with SF-539 was > 100 µM in each case. In addition, the CC50 with RPMI-8226, in the test with 786-0, in the test on OVCAR-5, in the test on SK-MEL-2, in the test with IGROV1 and in the test on MCF7/ADR-RES was > 100 µM in each case. Further, the CC50 is > 100 µM in the test with LOX IMVI and 74.1 µM in the test with HCC-2998. Besides, in the test on K-562, the 50% lethal concentration (LC50) was > 100 µM.
